Assay results as given in patent US20260022143A1, “Cyclic Peptide Inhibitors of IL-23” (JANSSEN PHARMACEUTICA NV, priority 2022, published 2026).
Starred links: 1 amine or outer side, 2 acyl side, 3 side chain; linkers in the order of their positions; H or OH if unused. Positions of bridges follow the written chain, without caps; N, C: chain ends. Non-standard residues stand in square brackets, D forms with d. Residues, ends and D or L forms follow the SMILES beside them. *: point of attachment. X62 = C[N+]1(CCCCc2cn(-c3ccc(C[C@H](N[*:1])C(=O)[*:2])cc3)nn2)CCOCC1; X43 = C[N+](C)(C)CCCCCc1cn(-c2ccc(C[C@H](N[*:1])C(=O)[*:2])cc2)nn1; X27 = C[N+](C)(C)CCc1cn(-c2ccc(C[C@H](N[*:1])C(=O)[*:2])cc2)nn1; X16 = C[N+](C)(C)Cc1cn(-c2ccc(C[C@H](N[*:1])C(=O)[*:2])cc2)nn1; Me3N+(CH2)2O(CH2)2O(CH2)2CO = C[N+](C)(C)CCOCCOCCC(=O)*; Phe(4-N3) = [N-]=[N+]=Nc1ccc(C[C@H](N)C(=O)O)cc1; Trp(7-Me) = Cc1cccc2c(C[C@H](N)C(=O)O)c[nH]c12; d(hLys(Me3)) = C[N+](C)(C)CCCCC[C@@H](N)C(=O)O; Hexanoyl(6-NMe3+) = C[N+](C)(C)CCCCCC(=O)*; Lys(Me3) = C[N+](C)(C)CCCC[C@H](N)C(=O)O; 2Nal = N[C@@H](Cc1ccc2ccccc2c1)C(=O)O; 3Pal = N[C@@H](Cc1cccnc1)C(=O)O; Lys(Me) = CNCCCC[C@H](N)C(=O)O; Pen = CC(C)(S)[C@H](N)C(=O)O; Thp = NC1(C(=O)O)CCOCC1; X3 = C[N+](C)(C)CCCCC*; Aib = CC(C)(N)C(=O)O; Sar = CNCC(=O)O

Assays:
[1] = target: T1, IL-23R (Homo sapiens, UniProt Q5VWK5); test: IL23R Reporter Assay; format: cell-based; details: HEK293 cells containing IL-23R, IL-12RP1 and STAT-inducible firefly luciferase reporter; 10 ng/mL IL-23 (EC90); 5 h at 37° C.; read-out: IL23R Reporter Assay
T1 construct: host or cells: HEK293
T1 sequence (Q5VWK5 24-629): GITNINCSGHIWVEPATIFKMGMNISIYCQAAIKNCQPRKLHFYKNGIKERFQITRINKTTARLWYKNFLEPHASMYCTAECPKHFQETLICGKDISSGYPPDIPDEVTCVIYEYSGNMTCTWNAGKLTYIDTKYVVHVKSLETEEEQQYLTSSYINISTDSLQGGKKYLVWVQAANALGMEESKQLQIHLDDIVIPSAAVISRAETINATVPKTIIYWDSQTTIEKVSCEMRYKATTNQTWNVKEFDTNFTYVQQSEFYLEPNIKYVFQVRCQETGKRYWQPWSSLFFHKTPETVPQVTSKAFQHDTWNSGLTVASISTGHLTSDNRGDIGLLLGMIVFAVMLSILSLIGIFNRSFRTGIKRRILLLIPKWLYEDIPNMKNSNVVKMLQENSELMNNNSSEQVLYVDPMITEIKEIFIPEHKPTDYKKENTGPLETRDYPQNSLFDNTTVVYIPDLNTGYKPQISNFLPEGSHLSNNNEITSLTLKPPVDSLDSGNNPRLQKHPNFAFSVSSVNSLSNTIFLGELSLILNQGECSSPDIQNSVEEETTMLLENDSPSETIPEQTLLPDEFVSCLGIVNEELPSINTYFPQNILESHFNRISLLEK

[2] = Exposed Polar Surface Area (EPSA); format: physicochemical; details: SFC on Chirex 3014 column; sample 1 mM DMSO stock; read-out: EPSA
Procedure, shortened: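 SFC retention on a Chirex 3014 (S-valine/(R)-1-(α-naphthyl)ethylamine) column at 35 °C, 4 mL/min, 14 MPa outlet, 5–60% methanol/20 mM ammonium formate gradient in CO2. Retention times converted to EPSA (Å²) via linear calibration with 8 standards; samples from 1 mM DMSO stock, run in duplicate.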

| Structure (SMILES) | IC50 [1] [nM] | EPSA [2] [A^2] |
| --- | --- | --- |
| CC(=O)N(C)CCCC[C@@H]1NC(=O)[C@H](Cc2c[nH]c3c(C)cccc23)NC(=O)[C@H]([C@@H](C)O)NC(=O)[C@H](CCCC[N+](C)(C)C)NC(=O)[C@@H](NC(=O)CCOCCOCC[N+](C)(C)C)C(C)(C)SSC(C)(C)[C@@H](C(=O)N[C@@H](Cc2ccc(OCCCCC[N+](C)(C)C)cc2)C(=O)N[C@@H](Cc2ccc3ccccc3c2)C(=O)NC2(C(=O)N[C@@H](CCCCN(C)C(C)=O)C(=O)N[C@@H](CC(N)=O)C(=O)N[C@@H](Cc3cccnc3)C(=O)N(C)CC(=O)N(C)C)CCOCC2)NC1=O [compound 328, cPEG3aCO-Pen(3)-K(Me)3-T-7MeW-K(NMeAc)-Pen(3)-TMAPF-2Nal-THP-K(NMeAc)-N-3Pya-Sar-CON(Me)2] ({Me3N+(CH2)2O(CH2)2O(CH2)2CO}-[Pen][Lys(Me3)]T[Trp(7-Me)][Lys(Me)](Ac)[Pen]Y(X3)[2Nal][Thp][Lys(Me)](Ac)N[3Pal][Sar]-NMe2; disulfide 1-6) | 1.2 | 159 |
| CC(=O)N(C)CCCC[C@@H]1NC(=O)[C@H](Cc2c[nH]c3c(C)cccc23)NC(=O)[C@H]([C@@H](C)O)NC(=O)[C@H](CC(=O)N(C)C)NC(=O)[C@@H](NC(=O)CCOCCOCC[N+](C)(C)C)C(C)(C)SSC(C)(C)[C@@H](C(=O)N[C@@H](Cc2ccc(N=[N+]=[N-])cc2)C(=O)N[C@@H](Cc2ccc3ccccc3c2)C(=O)NC2(C(=O)N[C@@H](CCCCN(C)C(C)=O)C(=O)N[C@@H](CC(N)=O)C(=O)N[C@@H](Cc3cccnc3)C(=O)N(C)CC(=O)N(C)C)CCOCC2)NC1=O [compound 331, cPEG3aCO-Pen(3)-N(N(Me)2)-T-7MeW-K(NMeAc)-Pen(3)-F(4N3)-2Nal-THP-K(NMeAc)-N-3Pya-Sar-CON(Me)2] ({Me3N+(CH2)2O(CH2)2O(CH2)2CO}-[Pen]D(NMe2)T[Trp(7-Me)][Lys(Me)](Ac)[Pen][Phe(4-N3)][2Nal][Thp][Lys(Me)](Ac)N[3Pal][Sar]-NMe2; disulfide 1-6) | 1.2 | 153 |
| CC(=O)N(C)CCCC[C@@H]1NC(=O)[C@H](Cc2c[nH]c3c(C)cccc23)NC(=O)[C@H]([C@@H](C)O)NC(=O)[C@H](CC(=O)N(C)C)NC(=O)[C@@H](NC(=O)CCOCCOCC[N+](C)(C)C)C(C)(C)SSC(C)(C)[C@@H](C(=O)N[C@@H](Cc2ccc(-n3cc(C[N+](C)(C)C)nn3)cc2)C(=O)N[C@@H](Cc2ccc3ccccc3c2)C(=O)NC2(C(=O)N[C@@H](CCCCN(C)C(C)=O)C(=O)N[C@@H](CC(N)=O)C(=O)N[C@@H](Cc3cccnc3)C(=O)N(C)CC(=O)N(C)C)CCOCC2)NC1=O [compound 332, cPEG3aCO-Pen(3)-N(N(Me)2)-T-7MeW-K(NMeAc)-Pen(3)-F(4TzlTMA1)-2Nal-THP-K(NMeAc)-N-3Pya-Sar-CON(Me)2] ({Me3N+(CH2)2O(CH2)2O(CH2)2CO}-[Pen]D(NMe2)T[Trp(7-Me)][Lys(Me)](Ac)[Pen][X16][2Nal][Thp][Lys(Me)](Ac)N[3Pal][Sar]-NMe2; disulfide 1-6) | 1.2 | 158 |
| CC(=O)N(C)CCCC[C@@H]1NC(=O)[C@H](Cc2c[nH]c3c(C)cccc23)NC(=O)[C@H]([C@@H](C)O)NC(=O)[C@H](CC(=O)N(C)C)NC(=O)[C@@H](NC(=O)CCOCCOCC[N+](C)(C)C)C(C)(C)SSC(C)(C)[C@@H](C(=O)N[C@@H](Cc2ccc(-n3cc(CC[N+](C)(C)C)nn3)cc2)C(=O)N[C@@H](Cc2ccc3ccccc3c2)C(=O)NC2(C(=O)N[C@@H](CCCCN(C)C(C)=O)C(=O)N[C@@H](CC(N)=O)C(=O)N[C@@H](Cc3cccnc3)C(=O)N(C)CC(=O)N(C)C)CCOCC2)NC1=O [compound 333, cPEG3aCO-Pen(3)-N(N(Me)2)-T-7MeW-K(NMeAc)-Pen(3)-F(4TzlTMA2)-2Nal-THP-K(NMeAc)-N-3Pya-Sar-CON(Me)2] ({Me3N+(CH2)2O(CH2)2O(CH2)2CO}-[Pen]D(NMe2)T[Trp(7-Me)][Lys(Me)](Ac)[Pen][X27][2Nal][Thp][Lys(Me)](Ac)N[3Pal][Sar]-NMe2; disulfide 1-6) | 1.8 | 159 |
| CC(=O)N(C)CCCC[C@@H]1NC(=O)[C@H](Cc2c[nH]c3c(C)cccc23)NC(=O)[C@H]([C@@H](C)O)NC(=O)[C@H](CC(=O)N(C)C)NC(=O)[C@@H](NC(=O)CCOCCOCC[N+](C)(C)C)C(C)(C)SSC(C)(C)[C@@H](C(=O)N[C@@H](Cc2ccc(-n3cc(CCCCC[N+](C)(C)C)nn3)cc2)C(=O)N[C@@H](Cc2ccc3ccccc3c2)C(=O)NC2(C(=O)N[C@@H](CCCCN(C)C(C)=O)C(=O)N[C@@H](CC(N)=O)C(=O)N[C@@H](Cc3cccnc3)C(=O)N(C)CC(=O)N(C)C)CCOCC2)NC1=O [compound 335, cPEG3aCO-Pen(3)-N(N(Me)2)-T-7MeW-K(NMeAc)-Pen(3)-F(4TzlTMA5)-2Nal-THP-K(NMeAc)-N-3Pya-Sar-CON(Me)2] ({Me3N+(CH2)2O(CH2)2O(CH2)2CO}-[Pen]D(NMe2)T[Trp(7-Me)][Lys(Me)](Ac)[Pen][X43][2Nal][Thp][Lys(Me)](Ac)N[3Pal][Sar]-NMe2; disulfide 1-6) | 1.2 | 153 |
| CC(=O)N(C)CCCC[C@@H]1NC(=O)[C@H](Cc2c[nH]c3c(C)cccc23)NC(=O)[C@H]([C@@H](C)O)NC(=O)[C@H](CC(=O)N(C)C)NC(=O)[C@@H](NC(=O)CCOCCOCC[N+](C)(C)C)C(C)(C)SSC(C)(C)[C@@H](C(=O)N[C@@H](Cc2ccc(-n3cc(CCCC[N+]4(C)CCOCC4)nn3)cc2)C(=O)N[C@@H](Cc2ccc3ccccc3c2)C(=O)NC2(C(=O)N[C@@H](CCCCN(C)C(C)=O)C(=O)N[C@@H](CC(N)=O)C(=O)N[C@@H](Cc3cccnc3)C(=O)N(C)CC(=O)N(C)C)CCOCC2)NC1=O [compound 336, cPEG3aCO-Pen(3)-N(N(Me)2)-T-7MeW-K(NMeAc)-Pen(3)-F(4TzlMMo4)-2Nal-THP-K(NMeAc)-N-3Pya-Sar-CON(Me)2] ({Me3N+(CH2)2O(CH2)2O(CH2)2CO}-[Pen]D(NMe2)T[Trp(7-Me)][Lys(Me)](Ac)[Pen][X62][2Nal][Thp][Lys(Me)](Ac)N[3Pal][Sar]-NMe2; disulfide 1-6) | 1.5 | 156 |

Results, then the compound that gave them:

| IC50 [1] [nM] | EPSA [2] [A^2] | Structure (SMILES) |
| --- | --- | --- |
| 0.97 | 153 | CC(=O)N(C)CCCC[C@@H]1NC(=O)[C@H](Cc2c[nH]c3c(C)cccc23)NC(=O)[C@H]([C@@H](C)O)NC(=O)[C@H](CC(=O)N(C)C)NC(=O)[C@@H](NC(=O)CCOCCOCC[N+](C)(C)C)C(C)(C)SSC(C)(C)[C@@H](C(=O)N[C@@H](Cc2ccc(OCCCCC[N+](C)(C)C)cc2)C(=O)N[C@@H](Cc2ccc3ccccc3c2)C(=O)NC(C)(C)C(=O)N[C@@H](CCCCN(C)C(C)=O)C(=O)N[C@@H](CC(N)=O)C(=O)N[C@@H](Cc2cccnc2)C(=O)N(C)CC(=O)N(C)C)NC1=O [compound 341, cPEG3aCO-Pen(3)-N(N(Me)2)-T-7MeW-K(NMeAc)-Pen(3)-TMAPF-2Nal-Aib-K(NMeAc)-N-3Pya-Sar-CON(Me)2] ({Me3N+(CH2)2O(CH2)2O(CH2)2CO}-[Pen]D(NMe2)T[Trp(7-Me)][Lys(Me)](Ac)[Pen]Y(X3)[2Nal][Aib][Lys(Me)](Ac)N[3Pal][Sar]-NMe2; disulfide 1-6) |
| 2 | 156 | CC(=O)N(C)CCCC[C@@H]1NC(=O)[C@H](Cc2c[nH]c3c(C)cccc23)NC(=O)[C@H]([C@@H](C)O)NC(=O)[C@H](CC(=O)N(C)C)NC(=O)[C@@H](NC(=O)CCCCC[N+](C)(C)C)C(C)(C)SSC(C)(C)[C@@H](C(=O)N[C@@H](Cc2ccc(OCCCCC[N+](C)(C)C)cc2)C(=O)N[C@@H](Cc2ccc3ccccc3c2)C(=O)NC2(C(=O)N[C@@H](CCCCN(C)C(C)=O)C(=O)N[C@@H](CC(N)=O)C(=O)N[C@@H](Cc3cccnc3)C(=O)N(C)CC(=O)N(C)C)CCOCC2)NC1=O [compound 343, 5cpaCO-Pen(3)-N(N(Me)2)-T-7MeW-K(NMeAc)-Pen(3)-TMAPF-2Nal-THP-K(NMeAc)-N-3Pya-Sar-CON(Me)2] ({Hexanoyl(6-NMe3+)}-[Pen]D(NMe2)T[Trp(7-Me)][Lys(Me)](Ac)[Pen]Y(X3)[2Nal][Thp][Lys(Me)](Ac)N[3Pal][Sar]-NMe2; disulfide 1-6) |
| 6.6 | 158 | CC(=O)N[C@H](CCCCC[N+](C)(C)C)C(=O)N[C@@H]1C(=O)N[C@@H](CC(=O)N(C)C)C(=O)N[C@@H]([C@@H](C)O)C(=O)N[C@@H](Cc2c[nH]c3c(C)cccc23)C(=O)N[C@@H](CCCCN(C)C(C)=O)C(=O)N[C@H](C(=O)N[C@@H](Cc2ccc(OCCCCC[N+](C)(C)C)cc2)C(=O)N[C@@H](Cc2ccc3ccccc3c2)C(=O)NC2(C(=O)N[C@@H](CCCCN(C)C(C)=O)C(=O)N[C@@H](CC(N)=O)C(=O)N[C@@H](Cc3cccnc3)C(=O)N(C)CC(=O)N(C)C)CCOCC2)C(C)(C)SSC1(C)C [compound 344, MeCO-hk(Me)3-Pen(3)-N(N(Me)2)-T-7MeW-K(NMeAc)-Pen(3)-TMAPF-2Nal-THP-K(NMeAc)-N-3Pya-Sar-CON(Me)2] (Ac-[d(hLys(Me3))][Pen]D(NMe2)T[Trp(7-Me)][Lys(Me)](Ac)[Pen]Y(X3)[2Nal][Thp][Lys(Me)](Ac)N[3Pal][Sar]-NMe2; disulfide 2-7) |
